# Laboratory results taken from patent publication US20110118262A1, “Pyrrolidinyl and Piperidinyl Compounds Useful as NHE-1 Inhibitiors” (BOEHRINGER INGELHEIM INTERNATIONAL GMBH, priority 2008, published 2011).
# Biological target: T1, NHE-1 (Homo sapiens, UniProt P19634)
# T1 construct: endogenous in cells; host or cells: HT-29
# Assay: Evaluation of NHE-1 Inhibition (pHi) in HT-29 cells
# Type: cell-based
# Conditions: BCECF dye, 50% inhibition of the intracellular pH recovery, read-out: NHE1 HT29 pHi IC50
# Procedure: Evaluation of NHE-1 Inhibition (pHi)
# HT-29 cells resuspended in DMEM supplemented with 10% FBS, 1% NEAA, and 1% Penn-Strep are seeded at 10,000 cells/well in collagen coated 384 well plates which are then incubated for 24 hours at 37° C. The next day, the medium is removed and the cells are dye (Invitrogen's BCECF) loaded for 30 minutes at 37° C., washed three times with an acid loading buffer (10 mM NH4Cl, 1.8 mM CaCl2, 90 mM Choline Cl, 5 mM Glucose, 15 mM Hepes, 5 mM KCl, 1 mM MgCl2, adjusted to pH 7.5 with KOH) and further incubated at RT for 30 minutes.
# At the end of the incubation, the buffer is removed and 5 uL of fresh acid loading buffer is added to each well to prevent the dessication of the cells. The plate is placed in a Hamamatsu FDSS6000 instrument and candidate compounds are added to the cells.
# T1 sequence (P19634 whole entry): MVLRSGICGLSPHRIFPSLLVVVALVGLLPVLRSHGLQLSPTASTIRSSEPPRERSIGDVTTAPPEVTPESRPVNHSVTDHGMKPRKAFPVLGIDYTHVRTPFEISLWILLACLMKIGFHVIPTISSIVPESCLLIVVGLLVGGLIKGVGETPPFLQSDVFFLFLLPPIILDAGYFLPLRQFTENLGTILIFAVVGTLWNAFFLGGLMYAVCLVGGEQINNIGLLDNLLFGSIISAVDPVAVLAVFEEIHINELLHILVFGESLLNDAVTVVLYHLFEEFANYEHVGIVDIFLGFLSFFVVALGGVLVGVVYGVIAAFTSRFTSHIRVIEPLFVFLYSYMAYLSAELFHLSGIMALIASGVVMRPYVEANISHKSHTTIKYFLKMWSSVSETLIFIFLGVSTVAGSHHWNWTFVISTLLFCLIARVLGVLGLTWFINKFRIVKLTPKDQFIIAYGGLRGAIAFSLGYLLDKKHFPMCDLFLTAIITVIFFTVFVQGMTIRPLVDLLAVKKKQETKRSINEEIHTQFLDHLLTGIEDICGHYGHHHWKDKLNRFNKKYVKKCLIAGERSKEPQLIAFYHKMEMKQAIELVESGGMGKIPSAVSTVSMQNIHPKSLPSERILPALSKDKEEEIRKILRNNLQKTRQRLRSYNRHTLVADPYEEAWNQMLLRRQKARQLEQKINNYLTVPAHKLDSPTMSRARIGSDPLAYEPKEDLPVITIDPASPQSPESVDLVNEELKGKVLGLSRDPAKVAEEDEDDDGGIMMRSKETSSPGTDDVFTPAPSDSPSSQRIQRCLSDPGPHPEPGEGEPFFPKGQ
row,Compound,IC50 [nM]
1,COc1cc(C2CCN(C(=O)c3ccn[nH]3)CC2)c(C(F)(F)F)cc1C(=O)NC(=N)N [N-{2-Methoxy-4-[1-(2H-pyrazole-3-carbonyl)-piperidin-4-yl]-5-trifluoromethyl-benzoyl}-guanidine],6
2,COc1cc(C2CCN(C(=O)c3ccccn3)CC2)c(C(F)(F)F)cc1C(=O)NC(=N)N [N-{2-Methoxy-4-[1-(pyridine-2-carbonyl)-piperidin-4-yl]-5-trifluoromethyl-benzoyl}-guanidine],43
3,"Cc1cc(C2CCN(C(=O)c3ccc4c(c3)CCC(=O)N4)CC2)c(C(F)(F)F)cc1C(=O)NC(=N)N [N-{2-Methyl-4-[1-(2-oxo-1,2,3,4-tetrahydro-quinoline-6-carbonyl)-piperidin-4-yl]-5-trifluoromethyl-benzoyl}-guanidine]",63
4,Cc1ccc(C(=O)N2CCC(c3cc(C)c(C(=O)NC(=N)N)cc3C(F)(F)F)CC2)cn1 [N-{2-Methyl-4-[1-(6-methyl-pyridine-3-carbonyl)-piperidin-4-yl]-trifluoromethyl-benzoyl}-guanidine],82
5,"Cc1cc(C2CCN(C(=O)c3ccc(=O)[nH]c3)CC2)c(C(F)(F)F)cc1C(=O)NC(=N)N [N-{2-Methyl-4-[1-(6-oxo-1,6-dihydro-pyridine-3-carbonyl)-piperidin-4-yl]-5-trifluoromethyl-benzoyl}-guanidine]",30
6,Cc1cc(C2CCN(C(=O)c3ncco3)CC2)c(C(F)(F)F)cc1C(=O)NC(=N)N [N-{2-Methyl-4-[1-(oxazole-2-carbonyl)-piperidin-4-yl]-5-trifluoromethyl-benzoyl}-guanidine],12
7,Cc1cc(C2CCN(C(=O)c3cccnc3)CC2)c(C(F)(F)F)cc1C(=O)NC(=N)N [N-{2-Methyl-4-[1-(pyridine-3-carbonyl)-piperidin-4-yl]-5-trifluoromethyl-benzoyl}-guanidine],30
8,COCC(=O)N1CCC(c2ccc(C(=O)NC(=N)N)cc2S(C)(=O)=O)CC1 [N-{3-methanesulfonyl-4-[1-(2-methoxy-acetyl)-piperidin-4-yl]-benzoyl}-guanidine],24
9,CS(=O)(=O)c1cc(C(=O)NC(=N)N)ccc1C1CCN(C(=O)c2cccc(C(F)(F)F)c2)CC1 [N-{3-methanesulfonyl-4-[1-(3-trifluoromethyl-benzoyl)-piperidin-4-yl]-benzoyl}-guanidine],54
10,CCC(=O)N1CCC(c2ccc(C(=O)NC(=N)N)cc2S(C)(=O)=O)CC1 [N-{3-methanesulfonyl-4-[1-propionyl-piperidin-4-yl]-benzoyl}-guanidine],21

# Results, then the compound that gave them:
row,IC50 [nM],Compound
1,7,Cc1cc(C2CCN(C(=O)c3ccncc3)CC2)c(C(F)(F)F)cc1C(=O)NC(=N)N [N-{2-Methyl-4-[1-(pyridine-4-carbonyl)-piperidin-4-yl]-5-trifluoromethyl-benzoyl}-guanidine]
2,250,N=C(N)NC(=O)c1ccc(C2CCN(C(=O)c3cccc(C(F)(F)F)c3)CC2)c(C(F)(F)F)c1 [N-{3-Trifluoromethyl-4-[1-(3-trifluoromethyl-benzoyl)-piperidin-4-yl]-benzoyl}-guanidine]
3,337,N=C(N)NC(=O)c1ccc(C2CCN(C(=O)c3ccc(C(F)(F)F)cc3)CC2)c(C(F)(F)F)c1 [N-{3-Triuoromethyl-4-[1-(4-trifluoromethyl-benzoyl)-piperidin-4-yl]-benzoyl}-guanidine]
4,20,"Cc1cc(C(=O)N2CCC(c3ccc(C(=O)NC(=N)N)cc3C(F)(F)F)CC2)nn1C [N-{4-[1-(1,5-Dimethyl-1H-pyrazole-3-carbonyl)-piperidin-4-yl]-3-trifluoromethyl-benzoyl}-guanidine]"
5,31,N=C(N)NC(=O)c1ccc(C2CCN(C(=O)C3(N)CCC3)CC2)c(C(F)(F)F)c1 [N-{4-[1-(1-Amino-cyclobutanecarbonyl)-piperidin-4-yl]-3-trifluoromethyl-benzoyl}-guanidine]
6,33,N=C(N)NC(=O)c1ccc(C2CCN(C(=O)C3(N)CCCCC3)CC2)c(C(F)(F)F)c1 [N-{4-[1-(1-Amino-cyclohexanecarbonyl)-piperidin-4-yl]-3-trifluoromethyl-benzoyl}-guanidine]
